From PMC6037779, “Repurposing drugs to target the malaria parasite unfolding protein response” (Scientific Reports, 2018)

Columns and labels:
huGRP78-NBD = target: T1, huGRP78-NBD (Homo sapiens, UniProt P11021); assay: SPR (Biacore) binding to human GRP78-NBD; conditions: ± standard error; calculated from kinetic constants; 25 °C; read-out: affinity constant (Kd) determined by SPR, huGRP78-NBD
T1 construct: PfGRP78-NBD wild type and mutant, and human GRP78-NBD were buffered in 25 mM hepes pH 7.5
T1 sequence (P11021 26-407 limits assumed): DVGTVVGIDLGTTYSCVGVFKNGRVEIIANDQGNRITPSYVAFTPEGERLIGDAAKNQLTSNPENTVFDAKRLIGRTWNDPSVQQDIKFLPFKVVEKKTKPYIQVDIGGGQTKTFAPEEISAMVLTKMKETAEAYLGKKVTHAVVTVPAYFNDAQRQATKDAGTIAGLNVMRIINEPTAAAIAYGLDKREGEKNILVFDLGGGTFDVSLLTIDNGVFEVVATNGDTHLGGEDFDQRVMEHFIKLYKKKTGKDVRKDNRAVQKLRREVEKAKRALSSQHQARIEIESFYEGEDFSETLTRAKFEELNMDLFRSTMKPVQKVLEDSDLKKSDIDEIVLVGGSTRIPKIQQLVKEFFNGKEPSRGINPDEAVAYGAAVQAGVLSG
Protocol: To quantify the binding affinities of PfGRP78-NBD for the selected compounds, dissociation constants (Kd) were determined by surface plasmon resonance (SPR). […] Purified PfGRP78-FL, PfGRP78-NBD wild-type and mutant, and human GRP78-NBD were immobilized on a CM5 sensorchip using NHS/EDC coupling following the manufacturer protocol to a level of <10,000 RUs, a reference surfaces without immobilized proteins served as a control for nonspecific binding and refractive index changes. […] The running buffer was 10 mM HEPES, pH 7.4, 150 mM NaCl, 0.005% P20, 1% DMSO and 2 mM MgCl2. Buffer only injections were used as blanks. The Biacore responses recorded during the 30 seconds of the injection were used to estimate the association constant (kon) and the 300 seconds after the injection were used to estimate the dissociation constant (koff). All dissociation and kinetic constants were estimated using double subtracted sensorgrams[40] using BiaEvaluation Software (GE Healthcare). All the reported parasite dissociation constants (Kd) were estimated with affinity analysis, and all the reported human Kds were calculated from kinetic constants.

PfGRP78-NBD mut (Y39F) = target: T2, PfGRP78-NBD mut (Y39F) (Plasmodium falciparum, UniProt Q05866, Y39F); assay: SPR (Biacore) binding to PfGRP78-NBD Y39F mutant; conditions: ± standard error, 25 °C
T2 construct: His-tag (pET28-MHL, TEV site) (N, cleaved yes); made in house; host or cells: E. coli BL21(DE3)
T2 sequence (Q05866 26-404 Y39F): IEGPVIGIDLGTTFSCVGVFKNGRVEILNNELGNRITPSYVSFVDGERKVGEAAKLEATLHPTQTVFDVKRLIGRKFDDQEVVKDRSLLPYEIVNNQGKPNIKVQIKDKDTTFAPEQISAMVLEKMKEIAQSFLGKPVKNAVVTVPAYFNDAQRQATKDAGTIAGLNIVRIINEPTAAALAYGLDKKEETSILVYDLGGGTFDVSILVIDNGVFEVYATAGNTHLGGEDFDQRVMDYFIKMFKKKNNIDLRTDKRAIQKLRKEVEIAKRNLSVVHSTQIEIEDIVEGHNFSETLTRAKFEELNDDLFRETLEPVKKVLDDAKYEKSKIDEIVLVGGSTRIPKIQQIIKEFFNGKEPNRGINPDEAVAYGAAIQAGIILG
Protocol: To quantify the binding affinities of PfGRP78-NBD for the selected compounds, dissociation constants (Kd) were determined by surface plasmon resonance (SPR). […] Purified PfGRP78-FL, PfGRP78-NBD wild-type and mutant, and human GRP78-NBD were immobilized on a CM5 sensorchip using NHS/EDC coupling following the manufacturer protocol to a level of <10,000 RUs, a reference surfaces without immobilized proteins served as a control for nonspecific binding and refractive index changes. Seven different concentrations of the ligands between 0.4 nM to 1 mM, were injected in triplicate over the sensor chip at 30 µL/min in random order. The running buffer was 10 mM HEPES, pH 7.4, 150 mM NaCl, 0.005% P20, 1% DMSO and 2 mM MgCl2. Buffer only injections were used as blanks. The Biacore responses recorded during the 30 seconds of the injection were used to estimate the association constant (kon) and the 300 seconds after the injection were used to estimate the dissociation constant (koff). All dissociation and kinetic constants were estimated using double subtracted sensorgrams[40] using BiaEvaluation Software (GE Healthcare). All the reported parasite dissociation constants (Kd) were estimated with affinity analysis, and all the reported human Kds were calculated from kinetic constants.

[1] = test system: Plasmodium falciparum 3D7; assay: In vitro growth inhibition assay (SYBR Green I), strain 3D7; format: cell-based; conditions: Plasmodium falciparum, 3D7; chloroquine-sensitive strain; 72 hours; average of three ± SD; read-out: EC50, growth inhibition, P. falciparum 3D7
Protocol: (§1) A major goal of our study was to evaluate the drug target potential of P. falciparum GRP78, thus we evaluated the effect of the chaperone inhibition on the malaria parasite. Our approach took advantage of several GRP78 inhibitors (Fig. 3a) previously characterized against human cancer cell lines, which were commercially available[20],[24]–[27]. These compounds were tested against two different parasite strains with opposite sensitivity towards the antimalarial drug chloroquine, 3D7 (sensitive) and W2 (resistant). […] A synchronized P. falciparum culture, with over 80% ring forms, was used in the growth inhibition assay. Each strain was assayed at 0.5% parasitaemia and 1.5% hematocrit. A 190 µL aliquot of parasite culture was dispensed per well to microplates that were pre-dispensed with the compounds at various dilutions. […] Dilutions of GRP78 inhibitors and DHA were prepared in water with a final concentration of DMSO below 0.05% (v/v). […] After incubation, the plates were subject to a freeze-thaw cycle (−80 °C) and the parasite growth was quantified by the SYBR Green I method as previously described. Briefly, 100 µl of homogenized parasite culture was transferred into 96-well black plates. 100 µl of SYBR Green lysis buffer (2x SYBR Green I, 100 mM Tris-HCl pH 7.5, 10 mM EDTA, 0.016% Saponin and 1.6% Triton X-100) were added to each well. The plates were incubated at room temperature in darkness for 1 hour.
(§2) Growth inhibition experiments were conducted at least three times per compound. […] The statistical analysis was performed with the software Prism 7 (GraphPad Software, San Diego, CA).

Plasmodium falciparum W2 = assay: In vitro growth inhibition assay (SYBR Green I), strain W2; format: cell-based; conditions: Plasmodium falciparum, W2; chloroquine-resistant strain; 72 hours; average of three ± SD; read-out: EC50, growth inhibition, P. falciparum W2
Protocol: as §1, §2

PfGRP78-NBD = target: T3, PfGRP78-NBD (Plasmodium falciparum, UniProt Q05866); assay: DSF thermal shift, PfGRP78-NBD; format: binding; conditions: compound 0.5 mM; shifts above or below 1 °C significant
T3 construct: His-tag (pET28-MHL, TEV site) (N, cleaved yes); made in house; host or cells: E. coli BL21(DE3)
T3 sequence (Q05866 26-404): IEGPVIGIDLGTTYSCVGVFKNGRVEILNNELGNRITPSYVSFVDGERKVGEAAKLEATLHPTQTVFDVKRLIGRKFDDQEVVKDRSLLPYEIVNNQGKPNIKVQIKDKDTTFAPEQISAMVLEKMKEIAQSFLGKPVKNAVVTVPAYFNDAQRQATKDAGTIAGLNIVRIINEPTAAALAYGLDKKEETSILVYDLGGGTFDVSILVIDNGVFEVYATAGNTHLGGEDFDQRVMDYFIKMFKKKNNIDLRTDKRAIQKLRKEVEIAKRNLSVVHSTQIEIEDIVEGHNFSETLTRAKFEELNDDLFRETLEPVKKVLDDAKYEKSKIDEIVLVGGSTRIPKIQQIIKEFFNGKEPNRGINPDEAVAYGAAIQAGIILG
Protocol: The Plasmodium and human GRP78 NBD differences were further characterized by measuring their interaction with ATP, ADP, and several compounds referenced in the literature as GRP78 inhibitors (Fig. 3a). Initially, their binding was determined using a DSF (Differential Scanning Fluorimetry) assay. In this assay, an interaction between the chaperone and a compound was measured as a change in the protein’s melting temperature (Tm), by subtracting the Tm of the protein by itself to the melting value of the protein in the presence of the compound. Differences above or below 1 °C between the melting temperatures (ΔTm) were considered indicative of a protein-compound interaction. As expected, the Plasmodium GRP78 chaperone interacted with both ATP and ADP. Four of the six compounds tested had significant effects on protein thermal stability (Fig. 3b).
DSF screening was carried out using a CFX96 Touch Real-Time PCR Detection System (BioRad, California). The PfGRP78-FL, PfGRP78-NBD wild type and mutant, and human GRP78-NBD were buffered in 25 mM hepes pH 7.5, 250 mM NaCl and assayed in a 96-well format. […]. The concentration was optimized for each protein to avoid saturation of the fluorescence detector. The GRP78 inhibitors were used at a final concentration of 0.5 mM. SYPRO Orange (Life Technologies, USA) was added as a fluorescence probe in a dilution of 1:1000. The experiments were conducted between 18 °C to 90 °C at a heating rate of 1 °C per minute. The recorded fluorescence reads were fitted to the Boltzmann sigmoid function using DMAN software. The inflection point of each fitted curve is defined as the melting temperature (Tm). The observed temperature shift, ΔTm, was recorded as the difference between Tm of the protein with ligand minus Tm of the protein without ligand. Thermal shifts above or below 1 °C were considered significant.

COc1ccc(-c2nc(-c3cc(C(F)(F)F)cc(C(F)(F)F)c3)n(Cc3ccc(C(N)=O)cc3)c2-c2ccc(OC)cc2)cc1 [Apoptozole] was tested, and the Kd (huGRP78-NBD) was 6.9 ± 0.33 µM, the “affinity constant (Kd) determined by SPR, PfGRP78-NBD mut” value (PfGRP78-NBD mut (Y39F)) was “N.B” and the EC50 [1] was 6.8 ± 1.4 µM. The EC50 (Plasmodium falciparum W2) was 4.5 ± 0.4 µM and the “DSF effect on thermal stability of PfGRP78-NBD” value (PfGRP78-NBD) was “increased the thermal stability”.
